In patent US8283479B2, “CXCR2 inhibitors” (Sanofi-Aventis Deutschland GmbH, priority 2004, dated 2012) one finds IC50 data, which are given here for eight compounds.

The IC50 is the concentration needed to halve the response being measured.

This experiment concerns the target T1, human CXCR2 (Homo sapiens, UniProt P25025).
T1 construct: expressed in transfected cells; host or cells: CHO-K1
T1 sequence (P25025 1-360): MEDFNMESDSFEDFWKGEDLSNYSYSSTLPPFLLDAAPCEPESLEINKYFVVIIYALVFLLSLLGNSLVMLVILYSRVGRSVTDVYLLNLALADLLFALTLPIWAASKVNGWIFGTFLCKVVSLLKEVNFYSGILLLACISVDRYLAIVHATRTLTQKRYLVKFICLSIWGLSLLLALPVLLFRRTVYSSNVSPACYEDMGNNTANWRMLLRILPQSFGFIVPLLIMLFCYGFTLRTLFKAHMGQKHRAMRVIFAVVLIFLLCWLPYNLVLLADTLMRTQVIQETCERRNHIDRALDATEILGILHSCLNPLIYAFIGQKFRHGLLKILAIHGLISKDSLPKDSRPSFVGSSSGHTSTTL
Kind of experiment: CXCR2 inhibition: calcium fluorescence assay (FLIPR). To be noted: CHO-K1 cells stably transfected with human CXCR2 and Gα16; Fluo-4; % inhibition of calcium response to chemokine (10-100 nM). In kind it is cell-based. The source says: Determination of CXCR2 Inhibition: Calcium Fluorescence Assay (FLIPR)
The assay is based on the detection of intracellular calcium changes detected by the selective, calcium-chelating dye, Fluo-4 (Molecular Probes). A large fluorescence intensity increase is observed upon calcium association with Fluo-4. The dye is delivered to the cell interior using an acetoxymethylester form of Fluo-4, where the intracellular esterase activity results in the charged species being released and trapped within the cytoplasm of the cell. […] By co-expressing the CXCR2 receptor and the promiscuous Gα16 protein, activation of this chemokine receptor is directed into this phospholipase C cascade resulting in intracellular calcium mobilization.
The CHO—K1 cells stably transfected with human CXCR2 and the promiscuous Gα16 protein were maintained in a log phase of growth at 37° C. and 5% CO2 in the following media: Iscove's, 10% FBS, 1× Penicillin-Streptomycin, 400 μg/mL G418 and 350 μg/mL Zeocin. Approximately 24-48 hours prior to the assay, 20,000-30,000 cells/well were plated onto a 96-well black/clear bottomed assay plate (Becton Dickinson) with a well volume of 180 μl. For dye-loading the culture medium was carefully removed and replaced by 100 μl/well dye solution (4 μM Fluo-4 in 135 mM NaCl, 5 mM KCl, 1 mM magnesium sulphate, 5 mM glucose, 20 mM Hepes, 2.5 mM probenecid; pH 7.4). Cells were incubated for 1 h at 37° C., and then washed 3× with buffer. After washing 90 μl buffer/well were left. Increasing concentrations of compound was added in 45 μl buffer (4× concentrated) followed by 10 min incubation at 37° C. Then the chemokine (10-100 nM) was applied in 45 μl buffer (4× concentrated) and the measurement performed for 2 min. The IC50 value of a compound was determined by calculation of % inhibition of total calcium response to the chemokine.
Turning to `CC(C)(NC(=O)c1ccc2ccccc2c1OCc1ccc2nonc2c1)C(=O)O` [Example 5, 2-{[1-(Benzo[1,2,5]oxadiazol-5-ylmethoxy)-naphthalene-2-carbonyl]-amino}-2-methyl-propionic acid], the half-maximal inhibitory concentration (IC50) is 3210 nM.
The same measure for `CC(C)(NC(=O)c1cc(Br)c2ccccc2c1OCc1ccc(OC(F)(F)F)cc1)C(=O)O` [Example 42, 2-{[4-Bromo-1-(4-trifluoromethoxy-benzyloxy)-naphthalene-2-carbonyl]-amino}-2-methyl-propionic acid]: 972 nM; for `CCC(C)(NC(=O)c1ccc2ccccc2c1OCc1cc2ccccc2s1)C(=O)O` (centres unmarked) [Example 74, 2-{[1-(Benzo[b]thiophen-2-ylmethoxy)-naphthalene-2-carbonyl]-amino}-2-methyl-butyric acid]: 980 nM.
For `CCC(C)(NC(=O)c1ccc2ccccc2c1OCc1ccc(OC(F)(F)F)c(Cl)c1)C(=O)O` (centres unmarked) [Example 105, 2-{[1-(3-Chloro-4-trifluoromethoxy-benzyloxy)-naphthalene-2-carbonyl]-amino}-2-methyl-butyric acid], the IC50 was determined as 1620 nM.
The same measure for `CC(NC(=O)c1ccc2ccccc2c1OCc1ccc(C(F)(F)F)cc1)C(=O)O` (centres unmarked) [Example 110, 2-{[1-(4-Trifluoromethyl-benzyloxy)-naphthalene-2-carbonyl]-amino}-propionic acid]: 700 nM; for `CC(C)(NC(=O)c1sc2ccccc2c1OCc1ccc(C(F)(F)F)nc1)C(=O)O` [Example 120, 2-Methyl-2-{[3-(6-trifluoromethyl-pyridin-3-ylmethoxy)-benzo[b]thiophene-2-carbonyl]-amino}-propionic acid]: 4440 nM; for `O=C(NC1(C(=O)O)CCCC1)c1ccc2ccccc2c1OCc1ccc(C(F)(F)F)cc1` [Example 127, 1-{[1-(4-Trifluoromethyl-benzyloxy)-naphthalene-2-carbonyl]-amino}-cyclopentanecarboxylic acid]: 996 nM.
Regarding `CC(C)C(C)(NC(=O)c1sc2ccccc2c1OCc1ccc(C(F)(F)F)cc1)C(=O)O` (centres unmarked) [Example 131, 2,3-Dimethyl-2-{[3-(4-trifluoromethyl-benzyloxy)-benzo[b]thiophene-2-carbonyl]-amino}-butyric acid], the IC50 came to 200 nM.
